This note sets out measurements from PubChem BioAssay (NCI).

Some test systems named below: RXF 393 renal; HOP-62 NSCLC; SR leukemia; 786-0 renal; K-562 leukemia; U251 CNS; SN12C renal; SF-295 CNS; UACC-62 melanoma.
Common to all, as to test: inhibition of tumour cell growth, NCI panel, 48 h

Molecules are shown by their SMILES.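 Compound exposure: 48 hours, 5 concentrations, 96-well plates. At the TGI there is no net growth.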

As to `CC1=C2C(=CC(C)(CO)C2O)C(=O)C(C)(O)C12CC2` (stereo unspecified), the TGI in the test with RXF 393 renal came out at 0.00569 µM; with HOP-62 NSCLC it was 0.0147 µM; with SR leukemia it was 0.146 µM; with 786-0 renal it was 0.014 µM; in the test on K-562 leukemia it was 0.105 µM; in the test on U251 CNS it was 0.0211 µM. In addition, the TGI came out at 0.118 µM in the test on SN12C renal, 0.00392 µM in the test with SF-295 CNS and 0.00784 µM in the test with UACC-62 melanoma.

Consider `O=[N+]([O-])c1ccc2c(c1)OCCOCCOc1ccc([N+](=O)[O-])cc1OCCOCCO2`, for which the TGI in the test with RXF 393 renal, with HOP-62 NSCLC, in the test on SR leukemia, in the test with 786-0 renal, in the test on K-562 leukemia and in the test on U251 CNS was above 100 µM throughout. Moreover, the TGI in the test with SN12C renal, in the test on SF-295 CNS and with UACC-62 melanoma was above 100 µM in each case.

With `O=NN(CCCl)C(=O)NCc1ccc[n+]([O-])c1`, the TGI in the test on RXF 393 renal, with HOP-62 NSCLC, in the test with SR leukemia, in the test with 786-0 renal, in the test on K-562 leukemia and in the test with U251 CNS was above 100 µM each time. Also, the TGI in the test with SN12C renal, with SF-295 CNS and in the test on UACC-62 melanoma was above 100 µM throughout.

Regarding `Brc1nc2c3ccccc3ncn2c1Br`, the TGI with RXF 393 renal is 86.1 µM; in the test on HOP-62 NSCLC it was above 100 µM; in the test with SR leukemia, above 100 µM; with 786-0 renal, above 100 µM; in the test with K-562 leukemia, above 100 µM; in the test with U251 CNS, above 100 µM. Also, the values for the TGI in the test on SN12C renal, with SF-295 CNS and with UACC-62 melanoma were above 100 µM, above 100 µM and 49.2 µM, respectively.

`O=[N+]([O-])c1ccc(OCCNc2cccc3ccccc23)cc1`: the TGI in the test with HOP-62 NSCLC, with 786-0 renal, with K-562 leukemia, in the test with U251 CNS, with SN12C renal and with SF-295 CNS was above 100 µM in each case. Moreover, in the test with UACC-62 melanoma, the TGI is above 100 µM.

Turning to `CN(OC(=O)CC(=O)c1ccccc1)C(=O)Cc1ccccc1`, the TGI in the test on HOP-62 NSCLC, with SR leukemia, in the test with 786-0 renal, in the test with U251 CNS, with SN12C renal and with SF-295 CNS was above 100 µM each time. In the test on UACC-62 melanoma, the TGI is above 100 µM.

Turning to `COc1cccc(/C=C\c2cc(OC)c(OC)c(OC)c2)c1`, the TGI in the test on HOP-62 NSCLC was above 100 µM; in the test with SR leukemia, 27.5 µM; with 786-0 renal it was 71.5 µM; with K-562 leukemia, 43.7 µM; with U251 CNS, 23 µM; in the test on SN12C renal, above 100 µM. The same molecule had a TGI with UACC-62 melanoma above 100 µM.

For `O=C1C(c2ccc(Cl)cc2)=[N+]([O-])c2ccccc21`, the TGI is 23 µM in the test with RXF 393 renal; 78.5 µM in the test on HOP-62 NSCLC; above 100 µM with SR leukemia; 30.7 µM with 786-0 renal; 68.5 µM in the test with K-562 leukemia; 31.5 µM in the test on U251 CNS. Besides, the TGI with SN12C renal was determined as 32.4 µM; with SF-295 CNS, 42.2 µM; with UACC-62 melanoma, 32.2 µM.

With `C=CC[P@@]1(=O)O[C@H](c2ccccc2)C(C)N1C(C)C` (stereo partly specified), the TGI in the test on RXF 393 renal, with SR leukemia, with 786-0 renal, in the test on K-562 leukemia, in the test with U251 CNS and with SN12C renal was above 100 µM in each case. Also, the TGI in the test on SF-295 CNS and in the test on UACC-62 melanoma was above 100 µM throughout.

In the case of `O=C1C2c3[nH]c4ccccc4c3C3CCSCC3C2C(=O)N1c1ccccc1` (stereo unspecified), the TGI in the test on RXF 393 renal, in the test with HOP-62 NSCLC, in the test on 786-0 renal, in the test on K-562 leukemia, with U251 CNS and in the test with SN12C renal was above 100 µM throughout. Also, the TGI in the test on SF-295 CNS and in the test on UACC-62 melanoma was above 100 µM throughout.

In the case of `CC(C)(C)c1ccc(Oc2ccc(C#N)c(C#N)c2)c(C(C)(C)C)c1`, the TGI in the test with RXF 393 renal was above 95.7 µM; with HOP-62 NSCLC, above 100 µM; with SR leukemia, 40.3 µM; in the test on 786-0 renal it was above 100 µM; in the test on K-562 leukemia, above 64.9 µM; with U251 CNS, above 100 µM. The TGI in the test with SN12C renal, with SF-295 CNS and in the test on UACC-62 melanoma was above 100 µM in each case.

As for `COCC1N=C(c2ccc(OC)c(OCc3ccccc3)c2OC)O[C@H]1c1ccccc1` (stereo partly specified), the TGI was 97.3 µM with RXF 393 renal; above 100 µM in the test with HOP-62 NSCLC; 96.1 µM in the test with 786-0 renal; above 100 µM in the test on K-562 leukemia; 60.6 µM in the test with U251 CNS; 66.4 µM in the test with SN12C renal. For the same molecule, the TGI in the test with SF-295 CNS was determined as 93.8 µM; in the test on UACC-62 melanoma, 51.5 µM.

On to `CCCOP1(=O)C=C(C)C(Cl)=C(C)C1` (stereo unspecified), for which the TGI in the test with RXF 393 renal is 57 µM; with HOP-62 NSCLC, above 100 µM; with SR leukemia, 61.8 µM; in the test on 786-0 renal it was 36.7 µM; with K-562 leukemia it was above 100 µM; with U251 CNS it was 59.3 µM. The values for the TGI in the test on SN12C renal, in the test with SF-295 CNS and with UACC-62 melanoma were 58.6 µM, above 100 µM and 32.4 µM, respectively.

In the case of `N#CC12CCC(O)C(CC1)C2=O` (stereo unspecified), the TGI was above 100 µM with RXF 393 renal; above 100 µM in the test with HOP-62 NSCLC; 77.3 µM in the test on SR leukemia; above 100 µM in the test on 786-0 renal; above 100 µM in the test with K-562 leukemia; above 100 µM in the test with U251 CNS. For the same molecule, the TGI with SN12C renal, in the test on SF-295 CNS and in the test on UACC-62 melanoma was above 100 µM in each case.

Take `O=C(c1ccccc1)c1ccc2cccc(O)c2n1`: the TGI is 69 µM in the test on RXF 393 renal; above 100 µM in the test on HOP-62 NSCLC; above 100 µM in the test on SR leukemia; 51.6 µM in the test on 786-0 renal; above 100 µM with K-562 leukemia; 68.3 µM in the test with U251 CNS. The values for the TGI in the test on SN12C renal, with SF-295 CNS and with UACC-62 melanoma were above 100 µM, 52.7 µM and above 100 µM, respectively.
